Patent US6545032B1, “Synthesis of [3,5,7]-H-imidazo[1,5-a] imidazol-2(3H)-one compounds” (Torrey Pines Institute for Molecular Studies, priority 1999, dated 2003)

Experiments:
kappa opiate receptor = biological target: T1, kappa opiate receptor (Cavia porcellus, UniProt P41144); assay: Inhibition of tritiated U69,593 binding to the kappa opiate receptor in guinea pig brain homogenates; set-up: Mean: unit not given beside the values; conditions: 3 nm tritiated U69,593, guinea pig brain membranes; for % Bound: [3H]U69,593 bound; for % Inhibition: inhibition of [3H]U69,593 binding; for Mean: mean bound radioactivity of [3H]U69,593, 2.5 hours 25° C.; for Minus NSB: mean minus non-specific binding
T1 construct: guinea pig cortices and cerebella were homogenized in 40 mL of Buffer A; from tissue; host or cells: guinea pig cortices and cerebella, crude membrane suspension
T1 sequence (P41144 whole entry): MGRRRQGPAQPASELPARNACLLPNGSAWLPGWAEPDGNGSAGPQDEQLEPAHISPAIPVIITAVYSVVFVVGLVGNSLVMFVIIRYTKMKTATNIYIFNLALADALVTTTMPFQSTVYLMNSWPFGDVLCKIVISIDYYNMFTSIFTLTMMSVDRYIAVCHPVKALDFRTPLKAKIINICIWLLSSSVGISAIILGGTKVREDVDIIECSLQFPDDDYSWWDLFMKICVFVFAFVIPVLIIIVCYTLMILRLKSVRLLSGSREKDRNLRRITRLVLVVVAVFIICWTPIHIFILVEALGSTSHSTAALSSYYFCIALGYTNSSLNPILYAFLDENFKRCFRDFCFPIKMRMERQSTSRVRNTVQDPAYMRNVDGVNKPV
In short: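 Guinea pig cortex and cerebellum membranes in 50 mM Tris-HCl pH 7.4 incubated with 3 nM [³H]U69,593 for 2.5 h at 25 °C, then filtered and bound radioactivity counted. Unlabelled U50,488 served as competitor for standard curve and nonspecific binding.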

mu opiate receptor = biological target: T2, mu opiate receptor (Rattus norvegicus, UniProt P33535); assay: Inhibition of [3H]DAMGO binding to the mu opiate receptor in rat brain homogenates; set-up: Mean: unit not given beside the values; conditions: 0.08 mg of compound per milliliter, 7 nM 3H-labeled DAMGO, rat brain membranes; for % Bound: [3H]DAMGO bound; for Mean: mean bound radioactivity of [3H]DAMGO; for Minus NSB*: mean minus non-specific binding; for % Inhibition: percent inhibition of DAMGO binding
T2 construct: from tissue; host or cells: rat brain membranes/homogenate
T2 sequence (P33535 whole entry): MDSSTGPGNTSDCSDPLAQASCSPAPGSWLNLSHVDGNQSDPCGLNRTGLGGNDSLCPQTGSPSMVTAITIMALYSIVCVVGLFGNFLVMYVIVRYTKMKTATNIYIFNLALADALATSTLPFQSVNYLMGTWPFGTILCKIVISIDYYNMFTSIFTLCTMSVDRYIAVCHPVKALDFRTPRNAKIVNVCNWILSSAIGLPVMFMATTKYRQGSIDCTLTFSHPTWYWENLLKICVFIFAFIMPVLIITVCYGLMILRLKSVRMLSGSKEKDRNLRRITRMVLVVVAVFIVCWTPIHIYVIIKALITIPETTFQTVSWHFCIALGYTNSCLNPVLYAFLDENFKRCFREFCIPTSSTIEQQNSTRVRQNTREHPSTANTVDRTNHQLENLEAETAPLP
In short: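 Members of an imidazo-imidazolone compound library were tested for blocking binding of [^3H]DAMGO, a mu opiate receptor-specific ligand, to rat brain membranes. Each 0.65 mL tube held 0.08 mg of compound mixture per milliliter, 0.5 mL membrane suspension (0.1 mg of protein) and 7 nM ^3H-labeled DAMGO (36 Ci/mmol) in 50 mM Tris-HCl buffer (pH 7.4).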

SMILES	% Bound (kappa opiate receptor)	% Inhibition (kappa opiate receptor)	Mean (kappa opiate receptor)	Minus NSB (kappa opiate receptor)	% Bound (mu opiate receptor)	Mean (mu opiate receptor)	Minus NSB* (mu opiate receptor)	% Inhibition (mu opiate receptor)
CC(C)c1nc(C2CCCC2)n2c1NC(=O)C2C(C)C (stereo not drawn) [Pool 145]	61.501%	38.499%	1544.15	637.15	71%	986.9	678.90	29%
Cc1nc(C(C)C)c2n1C(C(C)C)C(=O)N2 (stereo not drawn) [Pool 3]	54.228%	45.772%	1468.8	561.80	70%	974.05	666.05	30%
CC(C)c1nc(Cc2ccc(-c3ccccc3)cc2)n2c1NC(=O)C2C(C)C (racemic) [Pool 84]	69.624%	30.376%	1628.3	721.30	57%	850.4	542.40	43%
CCC(C)Cc1nc(C(C)C)c2n1C(C(C)C)C(=O)N2 (stereo not drawn) [Pool 126]	73.311%	26.689%	1666.5	759.50	64%	918.7	610.70	36%
CCC(C)c1nc(C)n2c1NC(=O)C2C(C)C (stereo not drawn) [Pool 38]	68.639%	31.361%	1618.1	711.10	40%	687.75	379.75	60%
Cc1cccc(Cc2nc(C(C)C)c3n2C(C(C)C)C(=O)N3)c1 (racemic) [Pool 70]	107.389%	−7.389%	2019.55	1112.55	68%	954.15	646.15	32%
Cc1nc(CC(C)C)c2n1C(C(C)C)C(=O)N2 (stereo not drawn) [Pool 37]	62.973%	37.027%	1559.4	652.40	66%	932.9	624.90	34%
CC(C)c1nc(Cc2ccc(F)cc2)n2c1NC(=O)C2C(C)C (racemic) [Pool 75]	71.134%	28.866%	1643.95	736.95	47%	758.2	450.20	53%
CCC(c1ccccc1)c1nc(C(C)C)c2n1C(C(C)C)C(=O)N2 (mixture of isomers) [Pool 68]	106.786%	−6.786%	2013.3	1106.30	66%	935.45	627.45	34%
Cc1nc(CCCCN)c2n1C(C(C)C)C(=O)N2 (stereo not drawn) [Pool 41]	51.853%	48.147%	1444.2	537.20	58%	858.1	550.10	42%
CCC(C)c1nc(C)n2c1NC(=O)C2C(C)C (stereo not drawn) [Pool 54]	100.410%	−0.410%	1947.25	1040.25	53%	815.2	507.20	47%
CC(C)c1nc(CCC2CCCCC2)n2c1NC(=O)C2C(C)C (stereo not drawn) [Pool 148]	89.971%	10.029%	1839.1	932.10	61%	890.8	582.80	39%
CC(C)c1nc(CC(C)c2ccccc2)n2c1NC(=O)C2C(C)C (mixture of isomers) [Pool 69]	67.157%	32.843%	1602.75	695.75	62%	900.1	592.10	38%
CC(C)c1nc(Cc2cc(C(F)(F)F)cc(C(F)(F)F)c2)n2c1NC(=O)C2C(C)C (racemic) [Pool 82]	70.589%	29.411%	1638.3	731.30	63%	911.65	603.65	37%
Cc1nc(Cc2ccc(O)cc2)c2n1C(C(C)C)C(=O)N2 (stereo not drawn) [Pool 48]	84.653%	15.347%	1784	877.00	44%	728.5	420.50	56%
CCCCc1nc(C)n2c1NC(=O)C2C(C)C (racemic) [Pool 60]	81.892%	18.108%	1755.4	848.40	62%	902.8	594.80	38%
CCC(C)C1C(=O)Nc2c(C(C)C)nc(C)n21 (stereo not drawn) [Pool 5]	75.043%	24.957%	1684.45	777.45	78%	1052.8	744.80	22%
Cc1nc(C(C)C)c2n1C(C(C)C)C(=O)N2 (stereo not drawn) [Pool 19]	84.580%	15.420%	1783.25	876.25	75%	1027.75	719.75	25%
COc1cccc(Cc2nc(C(C)C)c3n2C(C(C)C)C(=O)N3)c1 (racemic) [Pool 76]	91.902%	8.098%	1859.1	952.10	57%	854	546.00	43%
CCC(C)c1nc(C(C)C)c2n1C(C(C)C)C(=O)N2 (mixture of isomers) [Pool 124]	62.630%	37.370%	1555.85	648.85	62%	901.85	593.85	38%
Cc1nc(Cc2ccccc2)c2n1C(C(C)C)C(=O)N2 (stereo not drawn) [Pool 47]	104.469%	−4.469%	1989.3	1082.30	62%	897.8	589.80	38%
